# Data taken from article PMC9118553, “In Vivo Bioconcentration of 10 Anionic Surfactants in Rainbow Trout Explained by In Vitro Data on Partitioning and S9 Clearance” (Environmental Science & Technology, 2022).
# “And” between values parts separate entries of the source, which are not always exact repeats. Equal entries are not always repeated.
# Tested on: rainbow trout
# Experiment: In vivo bioconcentration experiment with a mixture of anionic surfactants, flow-through aquaria, 10 °C, pH 7.8;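 on Uptake rate constant kU: L kg-1 h-1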
# Conditions: for Concentration in fish: individual fish
# How it was run: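 Juvenile rainbow trout exposed to a 10-surfactant mixture for 4 days, then 7-day depuration, in flow-through aquaria at 10 °C, pH 7.8. Whole-fish homogenates and water analysed by LC-MS/MS against BEHP internal standard. kU, kT and BCF (=kU/kT) estimated by joint Bayesian model including water-concentration uncertainty.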
# [1] = determined using nominal concentrations in water
# [2] = from measured concentrations in water, Bayesian estimate, 95% credible interval in brackets
# [3] = measured concentrations in water, simpler estimation method (Text S3), 95% confidence intervals in brackets
smiles,measurement,setting,value
"CCCCCCCCCCCCCCS(=O)(=O)O [C14SO3, tetradecylsulfonate]",BCF,[1],32 L kg-1 ww
same,Elimination rate constant kT,[1],0.028 h⁻¹
same,Uptake rate constant kU,[1],0.90 L/kg/h
same,Log BCF,determined with measured concentrations in water,1.47 L kg-1 ww
same,Concentration in fish,"elimination phase, 97 h",113 ng g-1 ww and 118 ng g-1 ww and 164 ng g-1 ww
same,Concentration in fish,"elimination phase, 98 h",130 ng g-1 ww and 119 ng g-1 ww and 109 ng g-1 ww
same,Concentration in fish,"elimination phase, 100 h",185 ng g-1 ww and 93 ng g-1 ww and 114 ng g-1 ww
same,Concentration in fish,"elimination phase, 103 h",94 ng g-1 ww and 194 ng g-1 ww and 108 ng g-1 ww
same,Concentration in fish,"elimination phase, 120 h",62 ng g-1 ww and 81 ng g-1 ww and 50 ng g-1 ww
same,Concentration in fish,"elimination phase, 128 h",60 ng g-1 ww and 45 ng g-1 ww and 68 ng g-1 ww
same,Concentration in fish,"elimination phase, 144 h",42 ng g-1 ww and 31 ng g-1 ww and 70 ng g-1 ww
same,Concentration in fish,"elimination phase, 168 h",30 ng g-1 ww and 28 ng g-1 ww and 16.5 ng g-1 ww
same,Concentration in fish,"elimination phase, 192 h",11.9 ng g-1 ww and 8.6 ng g-1 ww and 12.7 ng g-1 ww
same,Concentration in fish,"elimination phase, 264 h",6.6 ng g-1 ww and 4.8 ng g-1 ww and 1.75 ng g-1 ww
same,Concentration in fish,"exposure phase, 1 h",38 ng g-1 ww and 7.5 ng g-1 ww and 72 ng g-1 ww
same,Concentration in fish,"exposure phase, 2 h",11.3 ng g-1 ww and 11.7 ng g-1 ww and 6.8 ng g-1 ww
same,Concentration in fish,"exposure phase, 3 h",16.0 ng g-1 ww and 19.9 ng g-1 ww and 15.9 ng g-1 ww
same,Concentration in fish,"exposure phase, 4 h",27 ng g-1 ww and 153 ng g-1 ww and 415 ng g-1 ww
same,Concentration in fish,"exposure phase, 6 h",41 ng g-1 ww and 39 ng g-1 ww and 32 ng g-1 ww
same,Concentration in fish,"exposure phase, 24 h",101 ng g-1 ww and 111 ng g-1 ww and 80 ng g-1 ww
same,Concentration in fish,"exposure phase, 48 h",152 ng g-1 ww and 155 ng g-1 ww and 117 ng g-1 ww
same,Concentration in fish,"exposure phase, 72 h",180 ng g-1 ww and 141 ng g-1 ww and 103 ng g-1 ww
same,Concentration in fish,"exposure phase, 96 h",168 ng g-1 ww and 150 ng g-1 ww and 178 ng g-1 ww
same,Elimination rate constant kT,[2],0.024 (0.022–0.026) h^–1
same,Uptake rate constant kU,[2],0.70 (0.61–0.80) L kg^–1 ww h^–1
same,diffusion coefficient (D) in the epithelial membrane of the gills,in vivo,3.1 × 10^–8 m h^–1
same,BCF (kinetic),"kinetic BCF from measured concentrations in water, 95% credible interval in brackets",30 (26–33) L kg^–1 ww
same,BCF,[3],28 (8) L kg-1 ww
same,Elimination rate constant kT,[3],0.026 (5) h-1
same,Uptake rate constant kU,[3],0.73 (6) L kg-1 ww h-1
